Results as given in patent publication US20240327412A1, “FACTOR XIIA INHIBITORS” (KALVISTA PHARMACEUTICALS LIMITED, priority 2021, published 2024).

biological target: T1, Human Factor XIIa (Homo sapiens, UniProt P00748); assay: Determination of FXIIa inhibition (fluorogenic substrate H-DPro-Phe-Arg-AFC, IC50 assay); assay type: biochemical; settings: substrate at Km concentration, 25° C.; category scale; read-out: Human FXII IC50 (nm)
T1 construct: Proteolytic cleavage of FXII to heavy and light chains of FXIIa dramatically increases catalytic activity; purchased Enzyme Research Laboratories
T1 sequence (P00748 373-615 limits assumed): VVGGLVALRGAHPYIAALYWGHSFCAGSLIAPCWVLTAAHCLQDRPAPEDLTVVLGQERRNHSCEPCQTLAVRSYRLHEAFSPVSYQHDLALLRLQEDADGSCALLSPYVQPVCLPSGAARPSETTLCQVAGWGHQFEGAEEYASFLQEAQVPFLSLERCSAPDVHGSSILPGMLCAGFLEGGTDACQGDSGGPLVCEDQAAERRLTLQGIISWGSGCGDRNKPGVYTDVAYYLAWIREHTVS
T1 sequence (P00748 20-372 partner limits assumed): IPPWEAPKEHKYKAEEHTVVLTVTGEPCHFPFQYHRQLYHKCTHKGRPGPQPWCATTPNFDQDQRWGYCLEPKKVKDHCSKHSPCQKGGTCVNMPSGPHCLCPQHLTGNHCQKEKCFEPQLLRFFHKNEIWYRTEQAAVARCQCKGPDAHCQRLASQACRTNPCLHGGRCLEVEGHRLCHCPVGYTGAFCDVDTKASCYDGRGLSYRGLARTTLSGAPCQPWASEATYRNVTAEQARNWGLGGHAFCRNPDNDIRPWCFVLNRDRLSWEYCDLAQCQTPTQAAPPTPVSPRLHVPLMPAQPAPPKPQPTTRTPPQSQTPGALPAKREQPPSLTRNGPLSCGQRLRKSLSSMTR
Procedure: In vitro inhibition of Factor XIIa was determined using an IC50 assay based on standard literature methods (see e.g Baeriswyl et al., ACS Chem. Biol., 2015, 10 (8) 1861; Bouckaert et al., European Journal of Medicinal Chemistry 110 (2016) 181). Human Factor XIIa (Enzyme Research Laboratories) was incubated at 25° C. with the fluorogenic substrate H-DPro-Phe-Arg-AFC (Peptide Protein Science) and various concentrations of the test compound. Protease activity was measured by monitoring the accumulation of liberated fluorescence from the substrate over 5 min at 25° C. The linear rate of fluorescence increase per minute was expressed as percentage (%) activity. The Km for the cleavage of the substrate by FXIIa was determined by standard transformation of the Michaelis-Menten equation. The compound inhibitor assays were performed at substrate Km concentration. IC50 values were calculated as the concentration of inhibitor giving 50% inhibition (IC50) of the uninhibited enzyme activity (100%).

Structure (SMILES)	IC50 [nM]
Nc1nccc2c(NCC34CC(COc5ccc6ncc(F)n6c5)(CO3)C4)cccc12 [Example 6625, N5-((4-(((3-fluoroimidazo[1,2-a]pyridin-6-yl)oxy)methyl)-2-oxabicyclo[2.1.1]hexan-1-yl)methyl)isoquinoline-1,5-diamine]	300 to 1000
COc1ccc(C(=O)N2CC3(COc4ccn(C)c(=O)c4)CC2(CNc2cccc4c(N)nccc24)C3)cc1 [Example 12071, 4-((1-(((1-aminoisoquinolin-5-yl)amino)methyl)-2-(4-methoxybenzoyl)-2-azabicyclo[2.1.1]hexan-4-yl)methoxy)-1-methylpyridin-2(1H)-one]	10 to 100
Cn1ccc2cc(OCC34COC(CNc5cccc6c(N)nccc56)(C3)C4)ccc2c1=O [Example 6643, 6-((1-(((1-aminoisoquinolin-5-yl)amino)methyl)-2-oxabicyclo[2.1.1]hexan-4-yl)methoxy)-2-methylisoquinolin-1(2H)-one]	300 to 1000
Cn1c(C(F)(F)F)cc(OCC23CCOC(CNc4cccc5c(N)nccc45)(C2)C3)cc1=O [Example 10951, 4-((1-(((1-aminoisoquinolin-5-yl)amino)methyl)-2-oxabicyclo[3.1.1]heptan-5-yl)methoxy)-1-methyl-6-(trifluoromethyl)pyridin-2(1H)-one]	300 to 1000
Cn1ccc(OCC23CN(c4ncc(-c5ccccc5)cn4)C(CNc4cccc5c(N)nccc45)(C2)C3)cc1=O [Example 12060, 4-((1-(((1-Aminoisoquinolin-5-yl)amino)methyl)-2-(5-phenylpyrimidin-2-yl)-2-azabicyclo[2.1.1]hexan-4-yl)methoxy)-1-methylpyridin-2(1H)-one]	1 to 10
Cn1ccc(OCC23CC(CNc4cccc5c(N)nccc45)(CN2C(=O)OCc2cccnc2)C3)cc1=O [Example 13009, Pyridin-3-ylmethyl4-(((1-aminoisoquinolin-5-yl)amino)methyl)-1-(((1-methyl-2-oxo-1,2-dihydropyridin-4-yl)oxy)methyl)-2-azabicyclo[2.1.1]hexane-2-carboxylate]	10 to 100
Cc1nccc(OCC23CCOC(CNc4cccc5c(N)nccc45)(C2)C3)n1 [Example 10974, N5-((5-(((2-methylpyrimidin-4-yl)oxy)methyl)-2-oxabicyclo[3.1.1]heptan-1-yl)methyl)isoquinoline-1,5-diamine]	3000 to 10000
CC1(C)NC(=O)c2ccc(OCC34COC(CNc5cccc6c(N)nccc56)(C3)C4)cc21 [Example 6650, 5-((1-(((1-aminoisoquinolin-5-yl)amino)methyl)-2-oxabicyclo[2.1.1]hexan-4-yl)methoxy)-3,3-dimethylisoindolin-1-one]	100 to 300
Cc1ccnc(OCC23CCOC(CNc4cccc5c(N)nccc45)(C2)C3)c1 [Example 10955, N5-((5-(((4-methylpyridin-2-yl)oxy)methyl)-2-oxabicyclo[3.1.1]heptan-1-yl)methyl)isoquinoline-1,5-diamine]	1000 to 3000
Cc1cc(OCC23CC(CNc4cccc5c(N)nccc45)(C2)C3)cc(=O)n1C [Example 1134, 4-((3-(((1-aminoisoquinolin-5-yl)amino)methyl)bicyclo[1.1.1]pentan-1-yl)methoxy)-1,6-dimethylpyridin-2(1H)-one]	100 to 300
Nc1nccc2c(NCC34CC(COc5ccc6nncn6n5)(CO3)C4)cccc12 [Example 6638, N5-((4-(([1,2,4]triazolo[4,3-b]pyridazin-6-yloxy)methyl)-2-oxabicyclo[2.1.1]hexan-1-yl)methyl)isoquinoline-1,5-diamine]	1000 to 3000
Cn1ccc(OCC23CC(CNc4cccc5c(N)nccc45)(CN2C(=O)NCc2ccccc2)C3)cc1=O [Example 13012, 4-(((1-aminoisoquinolin-5-yl)amino)methyl)-N-benzyl-1-(((1-methyl-2-oxo-1,2-dihydropyridin-4-yl)oxy)methyl)-2-azabicyclo[2.1.1]hexane-2-carboxamide]	10 to 100
Cc1cc(OCC23CCOC(CNc4cccc5c(N)nccc45)(C2)C3)ncn1 [Example 10971, N5-((5-(((6-methylpyrimidin-4-yl)oxy)methyl)-2-oxabicyclo[3.1.1]heptan-1-yl)methyl)isoquinoline-1,5-diamine]	300 to 1000
Nc1nccc2c(NCC34CC(COc5cccc(N6CCCC6=O)c5)(CO3)C4)cccc12 [Example 6653, 1-(3-((1-(((1-aminoisoquinolin-5-yl)amino)methyl)-2-oxabicyclo[2.1.1]hexan-4-yl)methoxy)phenyl)pyrrolidin-2-one]	300 to 1000
Nc1nccc2c(NCC34CC(COc5ccn6cnnc6c5)(C3)C4)cccc12 [Example 1135, N5-((3-(([1,2,4]triazolo[4,3-a]pyridin-7-yloxy)methyl)bicyclo[1.1.1]pentan-1-yl)methyl)isoquinoline-1,5-diamine]	300 to 1000
Cn1ccc(OCC23CN(C(=O)OCc4ccc5ccccc5c4)C(CNc4cccc5c(N)nccc45)(C2)C3)cc1=O [Example 12024, naphthalen-2-ylmethyl 1-(((1-aminoisoquinolin-5-yl)amino)methyl)-4-(((1-methyl-2-oxo-1,2-dihydropyridin-4-yl)oxy)methyl)-2-azabicyclo[2.1.1]hexane-2-carboxylate]	100 to 300

Results, then the compound that gave them:

IC50 [nM]	Structure (SMILES)
300 to 1000	Cn1ccc(OCC23CNC(CNc4ccc5c(N)nccc5c4)(C2)C3)cc1=O [Example 12011, 4-((1-(((1-aminoisoquinolin-6-yl)amino)methyl)-2-azabicyclo[2.1.1]hexan-4-yl)methoxy)-1-methylpyridin-2(1H)-one]
10 to 100	Cn1ccc(OCC23CN(C(=O)NCc4ccc5occc5c4)C(CNc4cccc5c(N)nccc45)(C2)C3)cc1=O [Example 12070, 1-(((1-aminoisoquinolin-5-yl)amino)methyl)-N-(benzofuran-5-ylmethyl)-4-(((1-methyl-2-oxo-1,2-dihydropyridin-4-yl)oxy)methyl)-2-azabicyclo[2.1.1]hexane-2-carboxamide]
300 to 1000	Cn1ccc(OCC23CC(CNc4cccc5c(N)nccc45)(CN2C(=O)CCc2ccccc2)C3)cc1=O [Example 13008, 4-((4-(((1-aminoisoquinolin-5-yl)amino)methyl)-2-(3-phenylpropanoyl)-2-azabicyclo[2.1.1]hexan-1-yl)methoxy)-1-methylpyridin-2(1H)-one]
3000 to 10000	Nc1nccc2c(NCC34CC(COc5ccon5)(CCO3)C4)cccc12 [Example 10936, N5-((5-((isoxazol-3-yloxy)methyl)-2-oxabicyclo[3.1.1]heptan-1-yl)methyl)isoquinoline-1,5-diamine]
1000 to 3000	Cn1ccc(OCC23CN(C(=O)OCc4ccccc4)C(CNc4ccnc5[nH]c(Cl)cc45)(C2)C3)cc1=O [Example 12025, benzyl 1-(((2-chloro-1H-pyrrolo[2,3-b]pyridin-4-yl)amino)methyl)-4-(((1-methyl-2-oxo-1,2-dihydropyridin-4-yl)oxy)methyl)-2-azabicyclo[2.1.1]hexane-2-carboxylate]
10 to 100	CN1Cc2cc(OCC34CN(C(=O)OCc5ccccc5)C(CNc5cccc6c(N)nccc56)(C3)C4)ccc2C1=O [Example 12018, benzyl 1-(((1-aminoisoquinolin-5-yl)amino)methyl)-4-(((2-methyl-1-oxoisoindolin-5-yl)oxy)methyl)-2-azabicyclo[2.1.1]hexane-2-carboxylate]
1000 to 3000	Nc1nccc2c(NCC34CC(COc5ccn6nncc6c5)(CCO3)C4)cccc12 [Example 10969, N5-((5-(([1,2,3]triazolo[1,5-a]pyridin-5-yloxy)methyl)-2-oxabicyclo[3.1.1]heptan-1-yl)methyl)isoquinoline-1,5-diamine]
10 to 100	Cn1ccc(OCC23CN(C(=O)CCc4cccc(Br)c4)C(CNc4cccc5c(N)nccc45)(C2)C3)cc1=O [Example 12053, 4-((1-(((1-aminoisoquinolin-5-yl)amino)methyl)-2-(3-(3-bromophenyl)propanoyl)-2-azabicyclo[2.1.1]hexan-4-yl)methoxy)-1-methylpyridin-2(1H)-one]
300 to 1000	COC(=O)N1CC2(COc3ccn(C)c(=O)c3)CC1(CNc1ccc3c(N)nccc3c1)C2 [Example 12013, methyl 1-(((1-aminoisoquinolin-6-yl)amino)methyl)-4-(((1-methyl-2-oxo-1,2-dihydropyridin-4-yl)oxy)methyl)-2-azabicyclo[2.1.1]hexane-2-carboxylate]
